In data set [1] the target is Metabotropic glutamate receptor 7 (Rattus norvegicus, UniProt P35400). The experiment in a line: Negative allosteric modulation of rat mGlu7 receptor expressed in HEK cells co-expressing Galpha15 assessed as reduction in calcium mobilization incubated for 142 secs prior to glutamate addition and after 120 secs treated with L-AP4 and measured after 40 secs by Fluo-4 AM dye based fluorescence assay. In kind it is functional, cell-based.

Data set [2] deals with Metabotropic glutamate receptor 7 (Rattus norvegicus) (UniProt P35400). The experiment in a line: Negative allosteric modulation of rat mGlu7 receptor expressed in HEK cells co-expressing Galpha15 assessed as minimum L-AP4 response by measuring reduction in calcium mobilization incubated for 142 secs prior to glutamate addition and after 120 secs treated with L-AP4 and measured after 40 secs by Fluo-4 AM dye based fluorescence assay relative to L-AP4. In kind it is functional, cell-based. On the set-up: scale not given: the % may be the effect or the level left. As to conditions: time 302.0 sec.
Metabotropic glutamate receptor 7 (Rattus norvegicus), sequence (P35400 whole entry): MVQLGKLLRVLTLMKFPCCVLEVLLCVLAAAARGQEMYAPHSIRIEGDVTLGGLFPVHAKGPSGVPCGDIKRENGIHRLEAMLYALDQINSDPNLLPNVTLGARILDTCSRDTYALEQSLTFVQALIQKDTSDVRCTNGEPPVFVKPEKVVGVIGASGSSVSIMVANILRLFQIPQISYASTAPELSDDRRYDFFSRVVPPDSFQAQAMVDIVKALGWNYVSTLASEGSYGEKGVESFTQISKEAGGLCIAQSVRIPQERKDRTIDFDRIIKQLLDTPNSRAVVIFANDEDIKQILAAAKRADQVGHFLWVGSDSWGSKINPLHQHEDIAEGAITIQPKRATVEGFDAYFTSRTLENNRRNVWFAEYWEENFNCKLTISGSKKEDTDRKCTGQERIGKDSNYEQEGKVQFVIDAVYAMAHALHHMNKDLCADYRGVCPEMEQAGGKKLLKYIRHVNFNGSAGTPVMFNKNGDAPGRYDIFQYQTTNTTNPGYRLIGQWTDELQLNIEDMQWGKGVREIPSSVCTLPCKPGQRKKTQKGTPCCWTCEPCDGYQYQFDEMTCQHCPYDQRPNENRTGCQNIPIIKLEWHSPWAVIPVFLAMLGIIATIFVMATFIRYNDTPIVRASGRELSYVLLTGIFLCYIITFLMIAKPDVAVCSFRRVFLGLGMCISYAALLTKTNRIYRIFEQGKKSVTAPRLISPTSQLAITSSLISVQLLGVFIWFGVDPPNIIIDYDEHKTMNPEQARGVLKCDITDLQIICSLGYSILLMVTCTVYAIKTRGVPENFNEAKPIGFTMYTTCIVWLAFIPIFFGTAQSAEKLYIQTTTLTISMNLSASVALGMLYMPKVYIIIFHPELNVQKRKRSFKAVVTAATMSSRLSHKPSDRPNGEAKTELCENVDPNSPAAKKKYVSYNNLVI

Data set [3] is described as follows: Fraction unbound in rat plasma at 5 uM incubated for 4 hrs by equilibrium dialysis method. In kind it is ADME, cell-free.
Data set [4] is described as follows: Fraction unbound in mouse plasma at 5 uM incubated for 4 hrs by equilibrium dialysis method. In kind it is ADME, cell-free. A general note: Equilibrium dialysis compares concentrations on both sides of a semipermeable membrane.
The nature of data set [5]: Fraction unbound in rat brain homogenate at 5 uM incubated for 6 hrs by equilibrium dialysis method. In kind it is ADME, tissue-based.
Data set [6] in a line: Fraction unbound in mouse brain homogenate at 5 uM incubated for 6 hrs by equilibrium dialysis method. In kind it is ADME, tissue-based.
The nature of data set [7]: Fraction unbound in human plasma at 5 uM incubated for 4 hrs by equilibrium dialysis method. In kind it is ADME, cell-free.
The target of data set [8] is Metabotropic glutamate receptor 4 (Homo sapiens, UniProt Q14833). As to the kind of experiment: Negative allosteric modulation of mGlu4 receptor (unknown origin).
Metabotropic glutamate receptor 4, sequence (Q14833 whole entry): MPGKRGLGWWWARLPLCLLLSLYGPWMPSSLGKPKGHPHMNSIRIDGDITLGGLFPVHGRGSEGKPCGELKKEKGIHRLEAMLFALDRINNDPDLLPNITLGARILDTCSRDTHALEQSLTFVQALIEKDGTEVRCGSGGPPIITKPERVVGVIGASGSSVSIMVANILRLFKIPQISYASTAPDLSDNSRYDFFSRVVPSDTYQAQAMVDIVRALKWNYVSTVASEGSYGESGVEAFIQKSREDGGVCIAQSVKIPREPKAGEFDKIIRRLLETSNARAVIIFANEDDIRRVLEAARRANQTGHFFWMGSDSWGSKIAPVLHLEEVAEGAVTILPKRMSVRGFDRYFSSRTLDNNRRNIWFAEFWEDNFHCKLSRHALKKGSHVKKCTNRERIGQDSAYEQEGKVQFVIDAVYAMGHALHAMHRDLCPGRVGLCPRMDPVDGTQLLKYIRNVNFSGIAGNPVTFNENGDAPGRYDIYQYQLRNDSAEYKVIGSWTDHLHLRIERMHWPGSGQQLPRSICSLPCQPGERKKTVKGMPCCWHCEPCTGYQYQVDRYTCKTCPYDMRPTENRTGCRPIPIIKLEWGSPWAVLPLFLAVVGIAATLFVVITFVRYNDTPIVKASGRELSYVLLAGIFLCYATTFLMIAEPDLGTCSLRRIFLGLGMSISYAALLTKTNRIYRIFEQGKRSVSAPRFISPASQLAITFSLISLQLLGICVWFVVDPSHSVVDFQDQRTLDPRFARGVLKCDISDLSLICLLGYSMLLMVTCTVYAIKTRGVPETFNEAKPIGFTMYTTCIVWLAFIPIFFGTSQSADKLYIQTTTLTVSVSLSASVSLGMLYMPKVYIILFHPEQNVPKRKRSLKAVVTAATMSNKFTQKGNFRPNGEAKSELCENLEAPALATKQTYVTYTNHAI
In data set [9] the target is Metabotropic glutamate receptor 8 (Homo sapiens, UniProt O00222). The experiment in a line: Negative allosteric modulation of mGlu8 receptor (unknown origin).
Metabotropic glutamate receptor 8, sequence (O00222 whole entry): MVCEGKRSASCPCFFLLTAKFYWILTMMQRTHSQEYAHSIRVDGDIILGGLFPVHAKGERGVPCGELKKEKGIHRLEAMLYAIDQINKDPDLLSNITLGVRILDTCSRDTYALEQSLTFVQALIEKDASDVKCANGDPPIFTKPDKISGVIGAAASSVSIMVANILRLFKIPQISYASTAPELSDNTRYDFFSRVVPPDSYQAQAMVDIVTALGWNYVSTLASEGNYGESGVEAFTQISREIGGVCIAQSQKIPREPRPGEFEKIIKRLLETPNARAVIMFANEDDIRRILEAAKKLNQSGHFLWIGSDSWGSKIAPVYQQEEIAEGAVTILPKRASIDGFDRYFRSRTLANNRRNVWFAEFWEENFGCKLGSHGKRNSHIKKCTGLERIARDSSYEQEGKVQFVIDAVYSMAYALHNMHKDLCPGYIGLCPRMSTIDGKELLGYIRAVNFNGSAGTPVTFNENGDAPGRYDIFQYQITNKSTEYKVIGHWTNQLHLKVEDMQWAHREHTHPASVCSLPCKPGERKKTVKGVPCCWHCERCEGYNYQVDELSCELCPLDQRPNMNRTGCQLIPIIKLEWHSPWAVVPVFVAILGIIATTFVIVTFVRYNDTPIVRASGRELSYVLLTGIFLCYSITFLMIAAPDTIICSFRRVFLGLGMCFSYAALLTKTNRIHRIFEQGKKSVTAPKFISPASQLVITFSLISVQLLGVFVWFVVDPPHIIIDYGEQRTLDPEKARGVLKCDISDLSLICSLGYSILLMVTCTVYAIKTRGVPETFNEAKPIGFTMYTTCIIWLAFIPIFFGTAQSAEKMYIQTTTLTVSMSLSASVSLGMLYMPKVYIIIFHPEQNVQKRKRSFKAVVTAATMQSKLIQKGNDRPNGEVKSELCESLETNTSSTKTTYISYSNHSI
Where [10] appears, read: filed as negative allosteric modulator.

Metabotropic glutamate receptor 7, sequence (P35400 whole entry): as the sequence (P35400 whole entry) above

As to `CCOC(=O)c1cnc2c(OC)cc(OC)cc2c1-c1ccc(-c2ccccc2OCC)nc1`, in data set [1], the IC50 (commonly the concentration needed to halve the response being measured) was determined as 810 nM. In addition, in data set [2] (setting [10]), the Activity amounted to 5%.

Turning to `CCOC(=O)c1cnc2c(OC)cccc2c1N1CCN(c2ccccc2F)CC1`, the IC50 in [1] turned out to be 6100 nM. Moreover, the Activity in [2] (setting [10]) came to 12%.

Consider `CCOC(=O)c1cnc2c(OC)cccc2c1-c1cnc(-c2ccccc2OC)cn1`, for which the IC50 in data set [1] amounted to 540 nM. Besides, the Activity in data set [2] (setting [10]) turned out to be 5.1%.

Consider `CCOC(=O)c1cnc2c(OC)cccc2c1N1CCN(c2ccccc2SC)CC1`, for which the IC50 in [1] came out at 510 nM. In addition, in data set [2] (setting [10]), the Activity was 4.7%.

Turning to `CCOC(=O)c1cnc2c(OC)cccc2c1N1CCN(c2nccnc2OC)CC1`, the IC50 in [1] amounted to 3000 nM. The Activity in [2] (setting [10]) turned out to be 11%.

In the case of `CCOC(=O)c1cnc2c(OC)cccc2c1-c1ccc(-c2ccccc2OCC)nc1`, the IC50 in [1] worked out at 370 nM. In addition, in data set [2] (setting [10]), the Activity worked out at 6.3%.

`CCOC(=O)c1cnc2c(OC)cccc2c1N1CCN(c2c(OC)cccc2OC)CC1`: in [1], the IC50 came to 800 nM. Also, in data set [2] (setting [10]), the Activity turned out to be 11%.

Regarding `CCOC(=O)c1cnc2c(OC)cccc2c1N1CCN(c2ccccc2C#N)CC1`, in data set [1], the IC50 came out at 4200 nM. In addition, in [2] (setting [10]), the Activity turned out to be 14%.

Turning to `CCOC(=O)c1ccc2c(OC)cccc2c1N1CCN(c2ccccc2OC)CC1`, the IC50 in data set [1] is over 30000 nM.

As to `CCOC(=O)c1cnc2c(OC)cccc2c1-c1ccc(-c2ccccc2OC)nc1`, in [1], the half-inhibitory concentration (IC50) came out at 600 nM. Also, in data set [2] (setting [10]), the Activity came out at 6.5%.

`CCOC(=O)c1cnc2c(OC)cc(OC)cc2c1N1CCN(c2ccccc2OC)CC1`: the IC50 in data set [1] was 670 nM. Further, the Activity in [2] (setting [10]) came out at 3.9%.

Turning to `CCOC(=O)c1cnc2c(OC)cccc2c1-c1ccc(-c2ccccc2OC)cn1`, the IC50 in data set [1] turned out to be 2800 nM. Further, in data set [2] (setting [10]), the Activity came to 6.8%.

As for `CCOC(=O)c1cnc2c(OC)cccc2c1-c1cnc(-c2ccccc2OC)c(OC)c1`, the IC50 in data set [1] came out at 350 nM. For the same compound, in [2] (setting [10]), the Activity worked out at 3.6%. For the same compound, the Fu turned out to be 0.01 in data set [3], 0.01 in data set [4], 0.04 in [5] and 0.04 in data set [6].

As for `CCOC(=O)c1cnc2c(OC)cccc2c1N1CCN(c2ccccc2OCC)CC1`, the IC50 in data set [1] was found to be 5100 nM. Besides, the Activity in data set [2] (setting [10]) stood at 8.7%.

In the case of `CCOC(=O)c1cnc2c(OC)cccc2c1N1CCN(c2cccnc2OC)CC1`, in data set [1], the IC50 worked out at 1500 nM. Moreover, in [2] (setting [10]), the Activity is 10%.

Turning to `CCOC(=O)c1cnc2c(OC)cccc2c1N1CCN(c2cncs2)CC1`, the IC50 in data set [1] is over 30000 nM.

For `CCOC(=O)c1cnc2c(OC)cccc2c1-c1cnc(-c2ccccc2OC)nc1`, the IC50 in data set [1] was 2400 nM. The Activity in data set [2] (setting [10]) came to 12%.

`CCOC(=O)c1cnc2c(OC)cccc2c1N1CCN(c2ccccc2C)CC1`: the IC50 in [1] is over 10000 nM. Moreover, the Activity in [2] (setting [10]) was determined as 41%.

For the compound `CCOC(=O)c1cnc2c(OC)cccc2c1C1CCN(c2ccccc2OC)CC1`, the IC50 in data set [1] is over 10000 nM. Also, the Activity in data set [2] (setting [10]) was found to be 41%.

On to `CCOC(=O)c1cnc2c(OC)cccc2c1-c1ccc(-c2ccccc2OC(C)C)nc1`, for which the IC50 in data set [1] was determined as 1500 nM. Besides, in data set [2] (setting [10]), the Activity was determined as 5.8%.

Turning to `CCOC(=O)c1cnc2c(OC)cccc2c1N1CCN(c2cc(F)ccc2OC)CC1`, the IC50 in [1] was determined as 2100 nM. Moreover, the Activity in [2] (setting [10]) came out at 15%.

`CCOC(=O)c1cnc2c(OC)cccc2c1-c1cc(F)c(-c2ccccc2OC)nc1OC`: the IC50 in data set [1] was found to be 2100 nM. Also, the Activity in [2] (setting [10]) was 24%.

`CCOC(=O)c1cnc2c(OC)cccc2c1N1CCN(c2ccccc2OC)CC1C` (racemic): the IC50 in [1] is 1500 nM. In addition, the Activity in data set [2] (setting [10]) was 6.1%.

As for `CCOC(=O)c1cnc2c(OC)cccc2c1N1CC2(CN(c3ccccc3OC)C2)C1`, the IC50 in data set [1] was over 30000 nM.

In the case of `CCOC(=O)c1cnc2c(OC)cccc2c1N1CCN(c2ccc(OC)cc2OC)CC1`, in data set [1], the IC50 came out at 1900 nM. For the same compound, the Activity in [2] (setting [10]) turned out to be 9%.

Take `CCOC(=O)c1cnc2sccc2c1N1CCN(c2ccccc2OC)CC1`: the IC50 in data set [1] is 4500 nM. Also, the Activity in [2] (setting [10]) is 26%.

With `CCOC(=O)c1cnccc1N1CCN(c2ccccc2OC)CC1`, the IC50 in data set [1] was 4200 nM. Also, the Activity in data set [2] (setting [10]) amounted to 13%.

For the compound `CCOC(=O)c1cnc2ccccc2c1N1CCN(c2ccccc2OC)CC1`, the IC50 in data set [1] is over 30000 nM.

In the case of `CCOC(=O)c1cnc2c(OC)cccc2c1-c1ccc(-c2ccccc2OC)cc1`, in [1], the IC50 was 2900 nM. Further, in [2] (setting [10]), the Activity is 4.2%. Moreover, the Fu in data set [3] and in data set [7] was under 0.001 throughout.

`CCOC(=O)c1cnc2c(OC)cccc2c1N1CCN(c2ccccc2OC)CC1`: the IC50 in data set [1] was 647 nM; in data set [8], over 30000 nM; in data set [9] it was over 30000 nM. Further, in data set [2] (setting [10]), the Activity turned out to be 5.6%. Besides, the figures for the Fu in data set [3] and in data set [7] were 0.016 and 0.018, respectively.

With `CCOC(=O)c1cnc2c(OC)cccc2c1N1CCN(c2ccccc2OC(F)(F)F)CC1`, in data set [1], the 50% inhibitory concentration (IC50) was over 30000 nM.

With `CCOC(=O)c1cnc2c(OC)cccc2c1N1CCN(c2cccs2)CC1`, in [1], the 50% inhibitory concentration (IC50) was over 30000 nM.

Regarding `CCOC(=O)c1cnc2c(OC)cccc2c1C1CC2CC(C1)N2c1ccccc1OC` (stereo unspecified), in [1], the half-inhibitory concentration (IC50) is over 10000 nM. In addition, the Activity in [2] (setting [10]) came out at 41%.

With `CCOC(=O)c1cnc2c(OC)cccc2c1N1CCN(c2ccccc2Cl)CC1`, the IC50 in data set [1] was over 30000 nM.

In the case of `CCOC(=O)c1cnc2c(OC)cccc2c1N1CC2CN(c3ccccc3OC)CC2C1` (stereo unspecified), in [1], the IC50 is over 10000 nM. For the same compound, the Activity in [2] came to 57%.

For the compound `CCOC(=O)c1cnc2ccsc2c1N1CCN(c2ccccc2OC)CC1`, the IC50 in [1] is 4500 nM. For the same compound, the Activity in [2] (setting [10]) amounted to 24%.

For the compound `CCOC(=O)c1cnc2c(OC)cc(OC)cc2c1-c1ccc(-c2ccccc2OC)nc1`, the IC50 in [1] was 880 nM. For the same compound, the Activity in [2] (setting [10]) is 3.5%.

Turning to `CCOC(=O)c1cnc2c(OC)cccc2c1N1CCN(c2ccccc2OC(C)C)CC1`, in data set [1], the IC50 stood at 2300 nM. In addition, the Activity in data set [2] (setting [10]) stood at 6.5%.

In the case of `CCOC(=O)c1cnc2c(OC)cccc2c1N(C)CCN(C)c1ccccc1OC`, in data set [1], the IC50 was 4400 nM. The Activity in [2] (setting [10]) was found to be 9.6%.

For `CCOC(=O)c1cnc2c(OC)cccc2c1N1CCN(c2ccccc2OC)C(C)C1` (racemic), the IC50 in data set [1] worked out at 1300 nM. In addition, the Activity in [2] (setting [10]) worked out at 8.6%.

In the case of `CCOC(=O)c1cnc2c(OC)cccc2c1N1CCN(c2ccnn2C)CC1`, in [1], the IC50 was over 30000 nM.

Turning to `CCOC(=O)c1cnc2c(OC)cccc2c1C1=CCN(c2ccccc2OC)CC1`, the IC50 in data set [1] was 3600 nM. In [2] (setting [10]), the Activity amounted to 9.6%.

`CCOC(=O)c1cnc2c(OC)cccc2c1-c1ccn(Cc2ccccc2OC)c1`: in data set [1], the IC50 was found to be 1200 nM. The Activity in data set [2] (setting [10]) was 6.5%.

In the case of `CCOC(=O)c1cnc2c(OC)cccc2c1-c1ccc(-c2ccccc2SC)nc1`, the IC50 in data set [1] was determined as 410 nM. For the same compound, the Activity in data set [2] (setting [10]) was determined as 5.6%.

On to `CCOC(=O)c1cnc2c(OC)cccc2c1C1C2CC1CN(c1ccccc1OC)C2` (stereo unspecified), for which the IC50 in data set [1] was over 30000 nM.
